The values below come from patent publication US10479780B2, “Aminopyrazole derivatives” (Chugai Seiyaku Kabushiki Kaisha, priority 2015, dated 2019).

Holding throughout (type): biochemical
Test [1] has as its target T1, human Yes1 enzyme (Homo sapiens, UniProt P07947).
T1 construct: made in house
The test can be described thus: Yes1 enzyme inhibitory activity (time-resolved fluorometry, biotinylated peptide phosphorylation). Particulars: read-out: YES_IC50. The method in brief: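 Inhibition was expressed against a compound-free control to give IC50, using TR-FRET read-out (Eu-cryptate anti-pTyr antibody, streptavidin-XL665).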

The target of test [2] is T2, human Src enzyme (Homo sapiens, UniProt P12931).
T2 construct: purchased Carna Biosciences, Inc. 08-173
The test can be described thus: Src enzyme inhibitory activity (time-resolved fluorometry, biotinylated peptide phosphorylation). The settings on record: read-out: SRC_IC50. The method in brief:
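Compounds were tested for blocking tyrosine phosphorylation of a biotinylated peptide substrate by recombinant human Src. Phosphorylated product was quantified by time-resolved fluorometry using europium cryptate and XL665 conjugates, and IC50 was calculated against the compound-free control.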

For test [3], the target named is T3, human Lck enzyme (Homo sapiens, UniProt P06239).
T3 construct: purchased Carna Biosciences, Inc. 08-170
The test can be described thus: Lck enzyme inhibitory activity (time-resolved fluorometry, biotinylated peptide phosphorylation). Particulars: read-out: LCK_IC50. The method in brief: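 Readout pairs a europium cryptate-labelled anti-phosphotyrosine antibody with XL665-streptavidin, measured by time-resolved fluorescence. IC50 derived from percent inhibition against untreated controls.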

The mark [4] stands for this setting: biotinylated peptide phosphorylation.

Read-outs that look alike come from different tables or passages of the source.

T3 sequence (P06239 whole entry): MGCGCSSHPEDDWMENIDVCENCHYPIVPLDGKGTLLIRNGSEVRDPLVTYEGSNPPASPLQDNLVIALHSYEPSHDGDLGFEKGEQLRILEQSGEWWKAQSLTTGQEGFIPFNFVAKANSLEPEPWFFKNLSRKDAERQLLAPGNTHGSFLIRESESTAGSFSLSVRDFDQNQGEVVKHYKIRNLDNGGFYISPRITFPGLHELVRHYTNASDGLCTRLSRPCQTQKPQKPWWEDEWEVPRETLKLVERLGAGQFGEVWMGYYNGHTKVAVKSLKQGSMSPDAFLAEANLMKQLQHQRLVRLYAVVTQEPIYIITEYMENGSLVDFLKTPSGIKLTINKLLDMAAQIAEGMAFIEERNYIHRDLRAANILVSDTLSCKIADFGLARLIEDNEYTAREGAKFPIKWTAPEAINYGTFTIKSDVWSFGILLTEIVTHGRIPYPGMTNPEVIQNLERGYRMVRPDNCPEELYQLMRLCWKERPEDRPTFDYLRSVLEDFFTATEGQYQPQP
T2 sequence (P12931 whole entry): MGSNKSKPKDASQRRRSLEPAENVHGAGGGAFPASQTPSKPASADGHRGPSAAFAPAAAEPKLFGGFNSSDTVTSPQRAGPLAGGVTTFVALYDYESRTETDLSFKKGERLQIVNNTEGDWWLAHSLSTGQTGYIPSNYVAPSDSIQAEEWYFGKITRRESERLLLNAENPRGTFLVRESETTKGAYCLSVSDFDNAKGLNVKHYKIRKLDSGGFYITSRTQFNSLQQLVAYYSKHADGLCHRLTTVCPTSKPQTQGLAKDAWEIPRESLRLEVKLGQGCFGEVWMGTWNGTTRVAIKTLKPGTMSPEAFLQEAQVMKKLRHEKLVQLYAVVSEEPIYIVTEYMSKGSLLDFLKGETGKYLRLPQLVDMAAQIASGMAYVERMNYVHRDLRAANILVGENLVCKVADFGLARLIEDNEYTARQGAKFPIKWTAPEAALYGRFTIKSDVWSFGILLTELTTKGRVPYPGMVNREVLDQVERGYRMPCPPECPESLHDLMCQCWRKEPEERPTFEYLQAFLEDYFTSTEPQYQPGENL
T1 sequence (P07947 whole entry): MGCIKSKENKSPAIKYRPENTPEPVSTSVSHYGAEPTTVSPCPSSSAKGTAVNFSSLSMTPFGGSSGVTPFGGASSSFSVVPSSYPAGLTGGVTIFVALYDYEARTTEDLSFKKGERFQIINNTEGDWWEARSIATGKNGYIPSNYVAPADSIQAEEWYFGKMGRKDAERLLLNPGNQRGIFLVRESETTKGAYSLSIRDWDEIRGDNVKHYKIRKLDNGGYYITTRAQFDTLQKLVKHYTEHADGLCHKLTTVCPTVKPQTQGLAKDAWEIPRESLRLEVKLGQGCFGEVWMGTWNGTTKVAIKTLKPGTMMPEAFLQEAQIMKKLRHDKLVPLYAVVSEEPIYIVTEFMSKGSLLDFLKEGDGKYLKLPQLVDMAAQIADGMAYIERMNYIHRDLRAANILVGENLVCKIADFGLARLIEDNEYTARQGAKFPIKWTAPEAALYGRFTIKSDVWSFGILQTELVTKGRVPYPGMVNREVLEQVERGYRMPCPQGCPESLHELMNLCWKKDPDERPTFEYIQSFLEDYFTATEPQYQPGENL

Consider `Cc1cc(-n2ncc(C(=O)c3cc4cc(OC5CCN(C6CCCC6)CC5)c(-c5ccccc5F)cc4[nH]3)c2N)ccc1Oc1ccccc1F` [Example 5-1-308, [5-amino-1-[4-(2-fluorophenoxy)-3-methylphenyl]pyrazol-4-yl]-[5-(1-cyclopentylpiperidin-4-yl)oxy-6-(2-fluorophenyl)-1H-indol-2-yl]methanone], for which the IC50 came to 0.0077 µM in test [1], 1.3 µM in test [2] and 0.2 µM in test [3].

As to `Cc1cc(Oc2ccccc2F)ccc1-n1ncc(C(=O)c2cc3cc(OCC(F)F)c(NS(=O)(=O)CCC(F)F)cc3[nH]2)c1N` [Example 4-24-023, N-[2-[5-amino-1-[4-(2-fluorophenoxy)-2-methylphenyl]pyrazole-4-carbonyl]-5-(2,2-difluoroethoxy)-1H-indol-6-yl]-3,3-difluoropropane-1-sulfonamide], the values for the IC50 in test [1] (setting [4]), in test [2] (setting [4]) and in test [3] (setting [4]) were 0.0023 µM, 0.024 µM and 0.014 µM, respectively.

As to `COc1cc2cc(C(=O)c3cnn(-c4cnc(Oc5ccccc5F)cc4C)c3N)[nH]c2cc1NS(=O)(=O)CC(=O)N1CCOCC1` [Example 4-10-016, N-[2-[5-amino-1-[6-(2-fluorophenoxy)-4-methylpyridin-3-yl]pyrazole-4-carbonyl]-5-methoxy-1H-indol-6-yl]-2-morpholin-4-yl-2-oxoethanesulfonamide], the values for the IC50 in test [1] (setting [4]), in test [2] (setting [4]) and in test [3] (setting [4]) were 0.00059 µM, 0.017 µM and 0.0058 µM, respectively.

On to `CS(=O)(=O)Nc1cc2[nH]c(C(=O)c3cnn(-c4c(F)cc(Oc5cccc(F)c5F)cc4F)c3N)cc2cc1F` [Example 5-1-030, N-[2-[5-amino-1-[4-(2,3-difluorophenoxy)-2,6-difluorophenyl]pyrazole-4-carbonyl]-5-fluoro-1H-indol-6-yl]methanesulfonamide], for which the IC50 in test [1] came out at 0.0024 µM; in test [2] it was 0.076 µM; in test [3], 0.0087 µM.

In the case of `Cc1cc(Oc2ccccc2F)ccc1-n1ncc(C(=O)c2cc3cc(F)c(NS(=O)(=O)NC4CC4)cc3[nH]2)c1N` [Example 4-5-010, [5-amino-1-[4-(2-fluorophenoxy)-2-methylphenyl]pyrazol-4-yl]-[6-(cyclopropylsulfamoylamino)-5-fluoro-1H-indol-2-yl]methanone], the results for the IC50 in test [1] (setting [4]), in test [2] (setting [4]) and in test [3] (setting [4]) were 0.0018 µM, 0.034 µM and 0.022 µM, respectively.

Consider `Cc1cc(Oc2ccccc2F)ccc1-n1ncc(C(=O)c2cc3cc(OCC(F)F)c(N4C(=O)[C@@H]5CCCN5C4=O)cc3[nH]2)c1N` [Example 5-1-252, (7aS)-2-[2-[5-amino-1-[4-(2-fluorophenoxy)-2-methylphenyl]pyrazole-4-carbonyl]-5-(2,2-difluoroethoxy)-1H-indol-6-yl]-5,6,7,7a-tetrahydropyrrolo[1,2-c]imidazole-1,3-dione], for which the figures for the IC50 in test [1], in test [2] and in test [3] were 0.0012 µM, 0.014 µM and 0.0046 µM, respectively.

As to `Cc1cc(Oc2ccccc2F)ncc1-n1ncc(C(=O)c2cc3cc(OC(F)F)c(C4CCN(S(=O)(=O)C5CC5)CC4)cc3[nH]2)c1N` [Example 4-17-010, [5-amino-1-[6-(2-fluorophenoxy)-4-methylpyridin-3-yl]pyrazol-4-yl]-[6-(1-cyclopropylsulfonylpiperidin-4-yl)-5-(difluoromethoxy)-1H-indol-2-yl]methanone], the IC50 in test [1] (setting [4]) was 0.002 µM; in test [2] (setting [4]), 0.099 µM; in test [3] (setting [4]), 0.045 µM.

As to `Cc1cc2cc(C(=O)c3cnn(-c4cnc(Oc5c(F)cccc5F)cc4C)c3N)[nH]c2cc1NS(=O)(=O)c1cccc(C#N)n1` [Example 5-1-536, N-[2-[5-amino-1-[6-(2,6-difluorophenoxy)-4-methylpyridin-3-yl]pyrazole-4-carbonyl]-5-methyl-1H-indol-6-yl]-6-cyanopyridine-2-sulfonamide], the IC50 is 0.0092 µM in test [1] (setting [4]), 0.56 µM in test [2] (setting [4]) and 0.092 µM in test [3] (setting [4]).

In the case of `Cc1cc2cc(C(=O)c3cnn(-c4cnc(Oc5ccccc5F)cc4C)c3N)[nH]c2cc1NS(=O)(=O)c1cccc(Cl)n1` [Example 5-1-508, N-[2-[5-amino-1-[6-(2-fluorophenoxy)-4-methylpyridin-3-yl]pyrazole-4-carbonyl]-5-methyl-1H-indol-6-yl]-6-chloropyridine-2-sulfonamide], the IC50 stood at 0.004 µM in test [1] (setting [4]), 0.92 µM in test [2] (setting [4]) and 0.14 µM in test [3] (setting [4]).

For `Cc1cc(Oc2ccccc2F)ncc1-n1ncc(C(=O)c2cc3cc(F)c(NS(=O)(=O)NC4CCOCC4)cc3[nH]2)c1N` [Example 4-5-012, [5-amino-1-[6-(2-fluorophenoxy)-4-methylpyridin-3-yl]pyrazol-4-yl]-[5-fluoro-6-(oxan-4-ylsulfamoylamino)-1H-indol-2-yl]methanone], the values for the IC50 in test [1] (setting [4]), in test [2] (setting [4]) and in test [3] (setting [4]) were 0.001 µM, 0.078 µM and 0.012 µM, respectively.

For the compound `Cc1cc2cc(C(=O)c3cnn(-c4cnc(Oc5c(F)cccc5F)cc4C)c3N)[nH]c2cc1NS(=O)(=O)CCCF` [Example 4-2-073, N-[2-[5-amino-1-[6-(2,6-difluorophenoxy)-4-methylpyridin-3-yl]pyrazole-4-carbonyl]-5-methyl-1H-indol-6-yl]-3-fluoropropane-1-sulfonamide], the figures for the IC50 in test [1] (setting [4]), in test [2] (setting [4]) and in test [3] (setting [4]) were 0.0031 µM, 0.037 µM and 0.019 µM, respectively.

On to `Cc1cc(Oc2ccccc2F)ccc1-n1ncc(C(=O)c2cc3cc(OCC(F)F)c(N4C(=O)[C@@H]5C[C@@H](NC(=O)OCC6c7ccccc7-c7ccccc76)CN5C4=O)cc3[nH]2)c1N` [Example 5-1-270, 9H-fluoren-9-ylmethyl N-[(6R,7aS)-2-[2-[5-amino-1-[4-(2-fluorophenoxy)-2-methylphenyl]pyrazole-4-carbonyl]-5-(2,2-difluoroethoxy)-1H-indol-6-yl]-1,3-dioxo-5,6,7,7a-tetrahydropyrrolo[1,2-c]imidazol-6-yl] carbamate], for which the IC50 is 0.0047 µM in test [1], 0.13 µM in test [2] and 0.028 µM in test [3].

Turning to `Cc1cc(Oc2ccccc2F)ncc1-n1ncc(C(=O)c2cc3cc(F)c(NS(=O)(=O)c4cc(F)cc(F)c4)cc3[nH]2)c1N` [Example 5-1-564, N-[2-[5-amino-1-[6-(2-fluorophenoxy)-4-methylpyridin-3-yl]pyrazole-4-carbonyl]-5-fluoro-1H-indol-6-yl]-3,5-difluorobenzenesulfonamide], the IC50 was found to be 0.014 µM in test [1] (setting [4]), 1.5 µM in test [2] (setting [4]) and 0.68 µM in test [3] (setting [4]).

Consider `Cc1cc(-n2ncc(C(=O)c3cc4cc(N5CCOCC5)c(N5CCOC5=O)cc4[nH]3)c2N)ccc1Oc1ccccc1F` [Example 5-1-160, 3-[2-[5-amino-1-[4-(2-fluorophenoxy)-3-methylphenyl]pyrazole-4-carbonyl]-5-morpholin-4-yl-1H-indol-6-yl]-1,3-oxazolidin-2-one], for which the IC50 in test [1] stood at 0.00071 µM; in test [2] it was 0.23 µM; in test [3] it was 0.033 µM.

For the compound `Cc1cc(Oc2ccccc2F)ccc1-n1ncc(C(=O)c2cc3cc(OC(F)F)c(NS(=O)(=O)CCC(F)F)cc3[nH]2)c1N` [Example 4-24-004, N-[2-[5-amino-1-[4-(2-fluorophenoxy)-2-methylphenyl]pyrazole-4-carbonyl]-5-(difluoromethoxy)-1H-indol-6-yl]-3,3-difluoropropane-1-sulfonamide], the IC50 came out at 0.0031 µM in test [1] (setting [4]), 0.041 µM in test [2] (setting [4]) and 0.017 µM in test [3] (setting [4]).
